Measurements: the supplement of paper PMC11061612

What was measured:
[1] = system: SK-GT-2 (Gastric Carcinoma); assay: combination Emax (second highest fraction inhibited in the dose matrix, 72 h); higher = more inhibition; extreme values may be limits of the assay
Method in brief: (§1)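 After 24 hours at 37°C and 5% CO2 in 1536-well plates, cells in DMEM/F12 or RPMI plus 10% FBS received two-drug dose matrices for 72 hours. Viability came from CellTiter-Glo 2.0 luminescence and was scaled as inhibition, anchored at 0 by vehicle wells and at 1 by blank wells. Combination Emax is taken as the second-highest inhibition in the matrix, and Bliss excess as the observed combination effect less EA + EB − EA·EB, with EA and EB the single-agent effects.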

[2] = system: SK-GT-2 (Gastric Carcinoma); assay: Bliss excess, mean over the matrix (fraction); higher = more synergy
Method in brief: as §1

[3] = system: COR-L279 (Small Cell Lung Carcinoma); assay: as above
Method in brief: as §1

[4] = system: SU-DHL-5 (B-Cell Non-Hodgkin's Lymphoma); assay: as above
Method in brief: as §1

[5] = system: SUP-B15 (B-Lymphoblastic Leukemia); assay: as above
Method in brief: as §1

[6] = system: MN-60 (B-Lymphoblastic Leukemia); assay: as above
Method in brief: as §1

[7] = system: KYSE-270 (Esophageal Squamous Cell Carcinoma); assay: as above
Method in brief: as §1

[8] = system: NCI-H526 (Small Cell Lung Carcinoma); assay: as above
Method in brief: as §1

[9] = system: ESO51 (Esophageal Adenocarcinoma); assay: as above
Method in brief: as §1

[10] = system: T-T (Esophageal Squamous Cell Carcinoma); assay: as above
Method in brief: as §1

[11] = system: KU812 (Chronic Myelogenous Leukemia); assay: as above
Method in brief: as §1

[12] = system: JHH-4 (Hepatocellular Carcinoma); assay: as above
Method in brief: as §1

[13] = system: CHSA8926 (Chondrosarcoma); assay: as above
Method in brief: as §1

NCI-H2731 (Mesothelioma) = assay: as above
Method in brief: as §1

[14] = system: H9 (T-Cell Non-Hodgkin's Lymphoma); assay: as above
Method in brief: as §1

[15] = system: VMRC-RCZ (Kidney Carcinoma); assay: as above
Method in brief: as §1

[16] = system: CW-2 (Colorectal Carcinoma); assay: as above
Method in brief: as §1

[17] = system: IM-95 (Gastric Carcinoma); assay: as above
Method in brief: as §1

[18] = system: SK-GT-4 (Esophageal Adenocarcinoma); assay: as above
Method in brief: as §1

G-361 (Melanoma) = assay: as above
Method in brief: as §1
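Wherever Bliss excess, mean over the matrix is given: after 72 h of two-drug dosing.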

Structure (SMILES) | combination Emax [1] | Bliss excess [2] | Bliss excess [3] | Bliss excess [4] | Bliss excess [5] | Bliss excess [6] | Bliss excess [7] | Bliss excess [8] | Bliss excess [9] | Bliss excess [10] | Bliss excess [11] | Bliss excess [12] | Bliss excess [13] | Bliss excess (NCI-H2731 (Mesothelioma)) | Bliss excess [14] | Bliss excess [15] | Bliss excess [16] | Bliss excess [17] | Bliss excess [18] | Bliss excess (G-361 (Melanoma))
C[C@@H](c1ccc2nccn2c1)n1nnc2ncc(-c3cnn(C)c3)nc21 [Savolitinib] + CC1(C)CCC(CN2CCN(c3ccc(C(=O)NS(=O)(=O)c4ccc(NCC5CCOCC5)c([N+](=O)[O-])c4)c(Oc4cnc5[nH]ccc5c4)c3)CC2)=C(c2ccc(Cl)cc2)C1 [Venetoclax] (first compound max 1 µM, 7x7, partner max 1 µM) | 0.139 | -0.0144 | -0.0059 | -0.0977 | -0.0465 | -0.0341 | -0.0463 | 0.0111 | -0.0334 | 0.011 | -0.0303 | 0.0006 | 0.0023 | -0.0423 | -0.0453 | -0.0374 | -0.0459 | -0.0368 | -0.0732 | -0.0764
C[C@@H](c1ccc2nccn2c1)n1nnc2ncc(-c3cnn(C)c3)nc21 [Savolitinib] + Cc1c2c(nn1C)CSCc1cc(n(C)n1)CSc1cc(c3ccccc3c1)OCCCc1c(C(=O)O)n(C)c3c-2c(Cl)ccc13 [AZD5991] (first compound max 1 µM, 7x7, partner max 1 µM) | 0.163 | -0.0274 | 0.0219 | -0.0269 | -0.0555 | -0.0334 | 0.0527 | -0.025 | -0.0013 | -0.0291 | 0.0064 | -0.0082 | 0.0233 | -0.0586 | 0.0005 | -0.0297 | -0.0263 | -0.0166 | -0.0519 | -0.0044
COc1cccc(OCCCN)c1-c1cc(Nc2cnc(C#N)cn2)n[nH]1 [Prexasertib] + Cc1cc2ncnn2cc1Nc1ncc2c(n1)n(C1CCOCC1)c(=O)n2C [AZD7648] (first compound max 1 µM, 7x7, partner max 10 µM) | 0.833 | -0.0454 | 0.0225 | -0.0314 | -0.0406 | 0.0271 | -0.0355 | -0.0038 | -0.0081 | 0.0364 | -0.0891 | -0.0281 | -0.0143 | -0.0001 | 0.0256 | -0.0074 | 0.043 | -0.0163 | -0.088 | -0.0052
Cc1c2c(nn1C)CSCc1cc(n(C)n1)CSc1cc(c3ccccc3c1)OCCCc1c(C(=O)O)n(C)c3c-2c(Cl)ccc13 [AZD5991] + C[C@@H]1COCCN1C2=NC(=NC(=C2)C3(CC3)[S@](=N)(=O)C)C4=C5C=CNC5=NC=C4 [AZD6738] (first compound max 1 µM, 7x7, partner max 10 µM) | 0.334 | 0.026 | -0.0057 | -0.0059 | 0.0181 | -0.0081 | 0.0289 | 0.0188 | 0.0124 | 0.0461 | 0.0296 | 0.0496 | -0.0081 | -0.0074 | 0.0395 | 0.0308 | 0.0514 | -0.0412 | -0.0038 | 0.0356
COc1nnc2ccc(N3CCC(c4ccc(OCCN5CCN(C)C(=O)[C@H]5C)cc4)CC3)nn12 [AZD5153] + CCN(CCO)CCCOc1ccc2c(Nc3cc(CC(=O)Nc4cccc(F)c4)[nH]n3)ncnc2c1 [AZD2811] (first compound max 1 µM, 7x7, partner max 1 µM) | 0.302 | -0.0314 | -0.0201 | -0.0638 | -0.028 | -0.0224 | -0.054 | -0.0332 | -0.0152 | -0.0284 | -0.0011 | -0.0334 | -0.035 | -0.0294 | -0.0163 | -0.0259 | -0.0525 | -0.0664 | -0.0421 | -0.0432
NC1(C(=O)N[C@@H](CCO)c2ccc(Cl)cc2)CCN(c2ncnc3[nH]ccc23)CC1 [Capivasertib] + C[C@@H]1COCCN1C2=NC(=NC(=C2)C3(CC3)[S@](=N)(=O)C)C4=C5C=CNC5=NC=C4 [AZD6738] (first compound max 10 µM, 7x7, partner max 10 µM) | 0.601 | -0.001 | 0.0329 | 0.0087 | 0.0044 | -0.0337 | -0.0847 | -0.0193 | -0.0208 | -0.0452 | 0.0357 | 0.0086 | -0.0179 | -0.0267 | 0.0057 | -0.0106 | -0.0298 | -0.0093 | -0.0871 | -0.0397
